This is an account of results in patent publication US20260263401A1, “Topical composition and uses thereof” (UNIVERSIDADE DE COIMBRA, priority 2022, published 2026).

The subject of data set [1] is Poly-L-Lysine Hydrobromide (PLL). Briefly: Lysine depletion protocol (in chemico reactivity towards lysine). The conditions noted are these: 20 mM molecule incubated 1 h with DNFB 5 mM; FIG. 1B. How it is done: In an embodiment, a Lysine depletion Protocol—“in house development protocol” was applied, comprising: Dissolve 0.01 g of Poly-L-Lysine Hydrobromide (PLL) (Sigma, P1399) in 100 mL of purified water (use within 2 months). Filter the solution with a syringe filter to remove aggregates and store ate 4° C. for further use. For plate coating add 50 μL of PLL to each well of the 96 black bottom glass microplate (Corning ref 45806) and incubate for 2 hours at 37° C. or 24 h at room temperature.
In an embodiment, after the coating procedure, the contents of the plate were discarded into a sink and the plate is washed 3 times with 200 μL of PBS per well. Blot any residual PBS by firmly tapping the plate upside-down on absorbent paper. 20 mM of each potential ACD inhibitory molecule/mixture is added and incubated with 70 μl of the strong skin sensitizer 1-fluoro-2,4-dinitrobenzene (DNFB) (5 mM in DMSO) for 1h; the mixture was transferred to the plate and incubated for 24 h at 37° C. The contents of the plate were discarded and the wells were washed 3 times with PBS as previously reported. 70 μL of 10 μM Fluorescein-5-Ex-Succinimidyl Ester (FSE) were added and incubated for 1 h in the dark at 37° C. The contents of the plate were discarded; the wells were washed 3 times with PBS as previously stated. The fluorescence was read in a microplate reader (Exc 485±20 nm and Em 530±30 nm). Synergy™ HT plate reader (BioTek Instruments, Inc., Winooski, VT, USA): Bottom read with a sensibility of 50. […]
In an embodiment, Reference control A is made with the solvent DMSO, with incubation with FSE and is used to calculate the maximum fluorescence or absorbance in the presence of LYS. […]
In an embodiment, Test chemicals were pre-weighted into 1.5 mL test tubes and dissolved in 1 mL of DMSO to prepare a 100 mM solution immediately before use. The weight of the test chemical to be added to the vial was determined based on the molecular weight and purity. […]
In an embodiment, for the data Analysis the percentage of peptide depletion is determined by using the following formula: […]

Data set [2] has as its system NRF2 dependent genes in HaCaT. Briefly: Expression of NRF2 dependent genes in keratinocytes (real time PCR). In kind it is cell-based, human. The conditions noted are these: 6 h. On the technique in general: Real-time PCR tracks product formation cycle by cycle.
Protocol: HaCaT is cultured with Dulbecco's Modified Eagle's Medium (DMEM) (Sigma-Aldrich, St. Louis, MO, USA), supplemented with 10% (v/v) heat-inactivated fetal bovine serum (FBS), 1% (v/v) antibiotic solution (100 U/mL penicillin, 100 μg/mL streptomycin) (Gibco, Carlsbad, CA, USA), 3.7 g/L sodium bicarbonate and 1 mM sodium pyruvate (Sigma-Aldrich, St. Louis, MO, USA).
In an embodiment, HaCaT cells are seeded in 6-well plates at a density of 6×10^5 cells/well and allowed to adhere for 24 h. After that, cells are incubated for 24 h with exposure medium (control) or treated with 10 mM of NAC, 10 mM of LYS, 8 μM of DNFB, 100 μM of MI, or 10 mM+DNFB, 10 mM LYS+DNFB and 10 mM+MI, 10 mM LYS+MI for 6 h or 24 h.
In an embodiment, total RNA (ribonucleic acid) is extracted from HaCaT treated cells, as previously described by our group [37], with NZYol reagent, according to the manufacturer's instructions and its concentration is determined by OD260 measurement using a NanoDrop spectrophotometer (Thermo Scientific, Wilmington, DE, USA). Samples are stored in RNA Storage Solution at −80° C. until use. Total RNA (1 g) is reverse-transcribed using the iScript Select cDNA Synthesis Kit, and real-time reverse transcriptase-polymerase chain reaction (RT-PCR) reactions are performed, in duplicate for each sample, on a Bio-Rad MyCycler iQ5 (Hercules, CA, USA), as previously described by our group [38].
In an embodiment, after amplification, a threshold is set for each gene and Ct values are calculated for all samples. Gene expression changes are analyzed using Bio-Rad CFX Maestro 1.1 system software (Hercules, CA, USA). The results are normalized using Hprt-1 as the reference gene. Primer sequences are designed using Beacon Designer software version 7.7 (Premier Biosoft International, Palo Alto, CA, USA) and thoroughly tested.
A short description of data set [3]: Cysteine depletion protocol (glutathione in solution depletion). Particulars: FIG. 1A. How it is done: In an embodiment, Cysteine depletion Protocol-Glutathione in solution depletion protocol—“in house development protocol” was applied: • In a test tube, mix 10 μL of the 100 mM test chemical solution with 190 μL of GSH solution (20 μL of GSH 2 mM and 170 μL of PB) and Incubated at RT, protected from light, for 1 h in a tube roller (40 rpm) • […]; [test chemical]f=5 mM; [GSH]f=0.2 mM; • 20 μL of Ellman's reagent 10 mM, a thiol sensitive colorimetric reagent was added. Mix gently by tapping manually in the test tube and incubate for 10 min at RT, in a test tube rotator protected from light; • The absorbance was read in a microplate reader at 405 nm. • Note: For each assay, a fresh Glutathione stock of 50 mM (0.00768 g in 500 μL of PBS) and the second stock of 2 mM in PBS (2 μL of the […] solution+48 μl of PBS) were freshly prepared.
In an embodiment, Control and Test Chemical Preparation was applied: • DNFB is used as the positive control for the assay in every assay run. For the negative control LA is used and for the reference control three types of reference controls are included in each study: • Reference control A is made with the solvent DMSO, with incubation with Ellman's reagent and is used to calculate the maximum fluorescence or absorbance in the presence of CYS containing peptides. […]
Test Chemicals: In an embodiment, test chemicals were pre-weighted into 1.5 mL test tubes and dissolved in 1 mL of DMSO to prepare a 100 mM solution immediately before use. The weight of the test chemical to be added to the vial is determined based on the molecular weight and purity. […]
In an embodiment, for the data analysis, the percent depletion of peptide is determined by using the following formula: […]

Data set [4] has as its system keratinocyte cell line (HaCat). Description: Metabolic activity of human keratinocytes (Resazurin Assay). In kind it is cell-based.
Where [5] appears, read: incubated before DNFB, vs DNFB alone.
Setting [6] is: incubated before MI, vs MI alone.

On to `NCCCC[C@H](N)C(=O)O` [LYS, lysine], for which, in data set [1], the “reactivity of the strong allergen DNFB towards lysine (Lysine depletion)” value is “significantly inhibit”. In data set [2] (setting [5]), the HMOX1 expression result is “significantly decrease” and the NQO1 expression result is on record as “significantly decrease”. Further, in data set [3], the “reactivity of the strong allergen DNFB towards cysteine (Glutathione depletion)” value was “significantly inhibit”. In data set [4], the “cytotoxicity (metabolic activity)” value is “do not display cytotoxicity”.

As for `CC(=O)N[C@@H](CS)C(=O)O` [NAC, n-acetyl cysteine], in data set [1], the “reactivity of the strong allergen DNFB towards lysine (Lysine depletion)” value is reported as “significantly inhibit”. Also, the HMOX1 expression result in data set [2] (setting [5]) is “significantly decrease”. Also, in data set [2] (setting [6]), the HMOX1 expression result is “significantly decrease” and the TRX1 expression entry is reported as “significantly decrease”. Also, the “reactivity of the strong allergen DNFB towards cysteine (Glutathione depletion)” value in data set [3] was “significantly inhibit”. Also, in data set [4], the “cytotoxicity (metabolic activity)” value is “do not display cytotoxicity”.
